# Like-named read-outs stand apart in the source and are kept apart here.
# Experiments:
# BChE = BChE (Homo sapiens, UniProt P06276); assay type: biochemical; conditions: sample 142.9 μg/mL in the reaction mixture
# Procedure: (§1) Ellman’s colorimetric method was used with modifications described previously. Tested sample (10 μL) at concentration 5 mg/mL was mixed with 20 μL of AChE (or BChE) solution (0.28 U/mL) and completed after 5 min with 35 μL of ATChI (or BTCh) (1.5 mmol/L), 175 μL of 0.3 mmol/L DTNB (containing 10 mmol/L NaCl and 2 mmol/L MgCl2) and 110 μL with Tris-HCl buffer (50 mmol/L, pH 8.0). Samples containing 10 μL of Tris-HCl buffer instead of the studied sample were run in the same way (“blank” samples). The increase in the absorbance due to the spontaneous hydrolysis of the substrate was monitored using “blank” samples containing ATCh (or BTCh) and DTNB completed to 350 μL with Tris-HCl buffer. All samples were incubated at 22 °C (30 min; incubation time was determined after optimization experiments, details not shown), and the absorbance was measured (405 nm, 96-well microplate reader, Tecan Sunrise, Grödig, Austria). The “false-positive” effect of studied compounds was measured according to Rhee et al. with minor modifications, as described previously: after mixing of the substrate with the enzyme and buffer, the “false-positive” sample was left for incubation. Then, a studied sample and DTNB were added, followed by an immediate measurement of the absorbance.
# (§2) Reference cholinesterase inhibitors were used for the calculations of results (eserine, neostigmine, magniflorine, rivastigmine and donepezil). For this purpose, for each compound, 16 dilutions in pure DMSO were prepared (2.57–41.14 μg/mL). These solutions (10 μL) were tested as described above and calibration curves were produced.
# (§3) Each sample was analyzed in at least eight repeats, and all solutions used in a set of analyses were prepared in the same buffer. For calculations, the background of the sample (10 μL mixed with 340 μL of Tris buffer) was measured at 405 nm and subtracted during calculations. Then, the absorbance of the test sample was subtracted from the absorbance of the “blank” sample.
# AChE = AChE (Homo sapiens, UniProt P22303); assay type: biochemical; conditions: sample 142.9 μg/mL in the reaction mixture; also: key: -: not active
# Chain of AChE (P22303 32-614): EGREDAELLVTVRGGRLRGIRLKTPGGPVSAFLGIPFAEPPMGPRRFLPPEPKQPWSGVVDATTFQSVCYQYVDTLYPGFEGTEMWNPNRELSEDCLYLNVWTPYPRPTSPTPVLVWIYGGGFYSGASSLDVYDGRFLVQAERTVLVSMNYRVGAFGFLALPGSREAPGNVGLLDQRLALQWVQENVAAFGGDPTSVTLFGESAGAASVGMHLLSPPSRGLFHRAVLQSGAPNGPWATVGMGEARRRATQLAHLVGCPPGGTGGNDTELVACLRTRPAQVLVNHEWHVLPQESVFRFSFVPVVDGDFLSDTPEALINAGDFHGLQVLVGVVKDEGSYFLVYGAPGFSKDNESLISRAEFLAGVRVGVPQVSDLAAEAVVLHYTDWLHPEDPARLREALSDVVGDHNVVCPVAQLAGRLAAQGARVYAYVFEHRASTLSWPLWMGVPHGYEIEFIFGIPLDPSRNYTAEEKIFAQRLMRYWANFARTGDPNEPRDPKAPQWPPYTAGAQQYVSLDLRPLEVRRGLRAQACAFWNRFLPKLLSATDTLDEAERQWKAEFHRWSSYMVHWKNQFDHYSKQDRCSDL
# Procedure: as §1, §2, §3
# CUPRAC assay = conditions: concentration giving absorbance 0.5; highest 250.0 µg/mL for substances, 312.5 µg/mL for extracts; ± SEM, n = 3
# PAMPA-BBB permeability = assay type: in vitro ADME
# From the text: To evaluate the effective permeability (Pe) of the salazinic acid, evernic acid, (−)-usnic acid as pure compounds and from the extracts (P. sulcata acetone extract, E. prunastri acetone extract, C. uncialis acetone extract, respectively), Parallel Artificial Membrane Permeability Assay (PAMPA) for the Blood-Brain Barrier (BBB) was used (Pion Inc., Billerica, MA, USA). The stock solutions of acetone extracts from C. uncialis, E. prunastri and P. sulcata and from (−)-usnic acid, evernic acid, salazinic acid, were prepared with DMSO (the concentrations of salazinic acid, evernic acid, and (−)-usnic acid reached were 2.5 mg/mL for pure compounds and extracts). Next, the donor solution was prepared (5 µL of stock solution/1000 µL of Prisma buffer, pH = 7.4 (Prisma HT, Pion Inc.). Subsequently, each filter membrane of the acceptor plate wells was coated with 5 μL BBB-1 lipid solution (Pion Inc.), and 180 µL of the donor solution was added to the donor wells. The acceptor well was filled with 200 µL BSB (Brain Sink Buffer, Pion Inc.). The plate was incubated for 1 h or 4 h at 37 °C. After incubation, the donor and acceptor concentrations of examined substances were determined using the HPLC. Effective permeability (Pe) of the compounds was calculated by using the following equation. (4) Pe=−ln(1−CA/Ceq)/S×(1/VD+1/VA)×t where Pe is the effective permeability coefficient (cm/s), VD = donor volume, VA = acceptor volume, Ceq = equilibrium concentration and Ceq=CD×VD+CA×VA/VD+VA , S = membrane area, and t = incubation time (in seconds).
# Compounds with Pe (× 10^−6 cm/s) > 1.5 are classified as high permeation predicted, while Pe (× 10^−6 cm/s) < 1.5 are classified as low permeation predicted. Samples were analyzed in triplicate and the average is reported.
# [1] = pH 7.4, Pe (effective permeability, PAMPA-BBB)
# Chain of BChE (P06276 29-602, species assumed): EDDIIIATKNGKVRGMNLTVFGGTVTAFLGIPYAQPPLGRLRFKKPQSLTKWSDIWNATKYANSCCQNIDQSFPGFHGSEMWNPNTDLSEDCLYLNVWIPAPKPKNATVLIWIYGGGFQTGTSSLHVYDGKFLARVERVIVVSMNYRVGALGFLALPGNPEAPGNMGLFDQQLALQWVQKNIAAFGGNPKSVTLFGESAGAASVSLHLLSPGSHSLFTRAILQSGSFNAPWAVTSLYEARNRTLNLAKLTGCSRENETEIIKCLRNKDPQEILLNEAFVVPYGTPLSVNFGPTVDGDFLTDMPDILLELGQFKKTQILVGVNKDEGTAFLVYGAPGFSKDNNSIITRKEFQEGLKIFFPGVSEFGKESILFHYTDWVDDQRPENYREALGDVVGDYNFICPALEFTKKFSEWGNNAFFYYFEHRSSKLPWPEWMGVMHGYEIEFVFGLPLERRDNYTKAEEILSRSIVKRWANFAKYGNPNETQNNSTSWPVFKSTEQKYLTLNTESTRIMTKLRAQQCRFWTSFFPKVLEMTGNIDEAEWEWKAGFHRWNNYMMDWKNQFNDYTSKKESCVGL
Structure (SMILES),"Equivalent Reference Concentration, Donepezil, BChE (BChE) [µg/mL]","Equivalent Reference Concentration, Eserine, BChE (BChE) [µg/mL]","Equivalent Reference Concentration, Magniflorine, BChE (BChE) [µg/mL]","Equivalent Reference Concentration, Neostygmine, BChE (BChE) [µg/mL]","Equivalent Reference Concentration, Rivastigmine, BChE (BChE) [µg/mL]","Equivalent Reference Concentration, Donepezil, AChE (AChE)","Equivalent Reference Concentration, Eserine, AChE (AChE)","Equivalent Reference Concentration, Magniflorine, AChE (AChE)","Equivalent Reference Concentration, Neostygmine, AChE (AChE)","Equivalent Reference Concentration, Rivastigmine, AChE (AChE)",CUPRAC IC0.5 (CUPRAC assay) [µg/mL],Papp at 12.5 µg/mL (PAMPA-BBB permeability; [1]) [×10⁻⁶ cm/s],"Papp at 1 h, 12.5 µg/mL (PAMPA-BBB permeability; pH 7.4, compound permeated from the acetone extract, 1 h, 37 °C, pH 7.4, ± SEM, n = 3, read-out: Pe × 10^−6 (cm/s) t = 1 h) [×10⁻⁶ cm/s]","Papp at 12.5 µg/mL (PAMPA-BBB permeability; pH 7.4, from the extract or as a pure compound, bound stated, read-out: Pe (effective permeability, PAMPA-BBB)) [×10⁻⁶ cm/s]","Papp at 1 h, 12.5 µg/mL (PAMPA-BBB permeability; pH 7.4, pure compound (PC), 1 h, 37 °C, pH 7.4, ± SEM, n = 3, read-out: Pe × 10^−6 (cm/s) t = 1 h) [×10⁻⁶ cm/s]","Pe × 10^−6 (cm/s) t = 1 h (PAMPA-BBB permeability; 1 h, 12.5 µg/mL, pH 7.4)","Pe × 10^−6 (cm/s) t = 4 h (PAMPA-BBB permeability; 4 h, 12.5 µg/mL, pH 7.4)","Papp at 1 h, 12.5 µg/mL (PAMPA-BBB permeability; pH 7.4, Pe × 10^−6 (cm/s) t = 1 h) [×10⁻⁶ cm/s]","Papp at 4 h, 12.5 µg/mL (PAMPA-BBB permeability; pH 7.4, Pe × 10^−6 (cm/s) t = 4 h) [×10⁻⁶ cm/s]"
"Cc1cc(O)c(C=O)c2c1C(=O)Oc1c(CO)c(O)c3c(c1O2)C(O)OC3=O (stereo not shown) [Salazinic acid, salazinic acid]",7.9 ± 0.3,9.0 ± 0.1,43.2 ± 0.2,13.6 ± 0.1,70.9 ± 0.3,-,-,-,-,-,>250.0,< 0.5,,,,,,,
"CC(=O)C1=C(O)C=C2Oc3c(C(C)=O)c(O)c(C)c(O)c3C2(C)C1=O (single isomer, unassigned; (-)) [(−)-Usnic acid, (−)-usnic acid]",,,,,,-,-,-,-,-,>250.0,,140 ± 7.3,> 1.5,92.8 ± 6.3,,,,
"COc1cc(C)c(C(=O)Oc2cc(C)c(C(=O)O)c(O)c2)c(O)c1 [Evernic acid, evernic acid]",9.5 ± 0.0,10.9 ± 0.1,52.3 ± 0.1,16.5 ± 0.2,85.9 ± 0.1,-,-,-,-,-,>250.0,> 1.5,,,,5.0 ± 0.7 × 10^−6 cm/s,7.2 ± 0.4 × 10^−6 cm/s,5.2 ± 0.8,8.6 ± 0.4
